From patent publication US10066238B2, “Methods for producing antibodies” (priority 2013, dated 2018)
Like-named read-outs stand apart in the source and are kept apart here.

Key:
[1] = tested on: Q769.h5 pseudovirus (clade A); test: HIV-1 neutralization assay (Env-pseudotyped virus, Luc reporter); assay type: cell-based
[2] = tested on: SF162 pseudovirus (clade B); test: as above; assay type: cell-based
[3] = tested on: SS1196.1 pseudovirus (clade B); test: as above; assay type: cell-based
[4] = tested on: Du156 pseudovirus (clade C); test: as above; assay type: cell-based
[5] = biological target: recombinant hemagglutinin (HA) (A/New Caledonia/20/99); test: SPR analysis of captured CR6261; assay type: binding, influenza H1N1; conditions: HA as analyte, bivalent analyte kinetics fit, read-out: equilibrium dissociation constant, KD
[6] = tested on: HIV-1 BaL; conditions: topical gel formulation; CCR5-using HIV-1 BaL; Veselinovic, et al.; cited from earlier work
[7] = tested on: Q769.h5 pseudovirus (clade A); conditions: reported by Wu et al. (16); cited from earlier work
[8] = tested on: SF162 pseudovirus (clade B); conditions: reported by Wu et al. (16); cited from earlier work
[9] = tested on: Du156 pseudovirus (clade C); conditions: reported by Wu et al. (16); cited from earlier work
[10] = biological target: FcγRI (Homo sapiens, UniProt P12314); test: FcγRI binding in ELISA and in flow cytometry; conditions: data not shown
Sequence of FcγRI (P12314 16-374, species assumed): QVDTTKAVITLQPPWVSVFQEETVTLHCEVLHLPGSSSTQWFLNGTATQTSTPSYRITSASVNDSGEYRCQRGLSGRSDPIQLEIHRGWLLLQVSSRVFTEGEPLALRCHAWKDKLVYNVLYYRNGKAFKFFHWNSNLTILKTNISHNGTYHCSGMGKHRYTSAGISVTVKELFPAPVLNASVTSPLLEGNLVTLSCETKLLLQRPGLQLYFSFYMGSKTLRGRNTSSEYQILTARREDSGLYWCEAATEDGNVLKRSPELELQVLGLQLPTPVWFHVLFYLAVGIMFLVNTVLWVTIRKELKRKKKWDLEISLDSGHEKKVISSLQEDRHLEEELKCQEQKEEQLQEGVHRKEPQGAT

[11] = TZM-b1 cells, TFV concentration in combination, mean ± SEM, read-out: IC50 in a respective combination with VRC01p
[12] = TZM-b1 cells, TFV, mean ± SEM, read-out: IC50 when used individually
[13] = TZM-b1 cells, GRFT, MVC concentration in combination, mean ± SEM, read-out: IC50 in a respective combination with VRC01p
[14] = TZM-b1 cells, GRFT, MVC, mean ± SEM, read-out: IC50 when used individually
[15] = read-out: IC50 in a respective combination with VRC01p, TZM-b1 cells, GRFT, MVC concentration in combination, mean ± SEM
[16] = read-out: IC50 when used individually, TZM-b1 cells, GRFT, MVC, mean ± SEM

## C[C@H](Cn1cnc2c(N)ncnc21)OCP(=O)(O)O [TFV, tenofovir]
[1]; [11]
  IC50: 2090 ± 390 nM
[1]; [12]
  IC50: 21200 ± 3530 nM
[1]; mean ± SEM
  dose reduction index (DRI) in a respective combination with VRC01p: 8.40 ± 1.41
[2]; [11]
  IC50: 880 ± 400 nM
[2]; [12]
  IC50: 2700 ± 1020 nM
[2]; mean ± SEM
  dose reduction index (DRI) in a respective combination with VRC01p: 2.10 ± 0.34
[3]; [11]
  IC50: 1920 ± 340 nM
[3]; [12]
  IC50: 7650 ± 2390 nM
[3]; mean ± SEM
  dose reduction index (DRI) in a respective combination with VRC01p: 3.76 ± 0.68
[4]; [11]
  IC50: 60 nM
[4]; [12]
  IC50: 7140 ± 1910 nM
[4]; mean ± SEM
  dose reduction index (DRI) in a respective combination with VRC01p: 3.01 ± 0.65

## CR6261: anti-influenza bnMAb CR6261 IgG1 (PDB ID: 3GBM) expressed in N. benthamiana
[5]
  Kd: 0.055 ± 0.0036 nM

## VRC01: CD4-binding site (CD4bs)-specific bnMAb isolated from a slowly progressing HIV-1 infected donor
[6]
  protection against vaginal challenge: protected

## VRC01HEK: HEK293F cell-produced bnMAb VRC01
[7]
  VRC01HEK IC50: 0.084 µg/mL
[8]
  VRC01HEK IC50: 0.139 µg/mL
[9]
  VRC01HEK IC50: 0.089 µg/mL

## VRC01p: Nicotiana plant-expressed anti-HIV-1 bnMAb VRC01 IgG1 from the L-(KP6pp)-H construct
[10]
  binding to FcγRI compared with a human IgG1 isotype control: nearly an order of magnitude less

## griffithsin [GRFT]
[1]; [13]
  IC50: 0.79 ± 0.19 nM
[1]; [14]
  IC50: 12.4 ± 2.88 nM
[1]; mean ± SEM
  dose reduction index (DRI) in a respective combination with VRC01p: 11.3 ± 2.95
[2]; [13]
  IC50: 0.1 ± 0.03 nM
[2]; [14]
  IC50: 0.59 ± 0.34 nM
[2]; mean ± SEM
  dose reduction index (DRI) in a respective combination with VRC01p: 3.19 ± 1.16
[3]; [13]
  IC50: 0.01 ± 0.001 nM
[3]; [14]
  IC50: 0.04 ± 0.01 nM
[3]; mean ± SEM
  dose reduction index (DRI) in a respective combination with VRC01p: 2.98 ± 0.72
[4]; [13]
  IC50: 0.003 ± 0.0004 nM
[4]; [14]
  IC50: 0.02 ± 0.001 nM
[4]; mean ± SEM
  dose reduction index (DRI) in a respective combination with VRC01p: 6.29 ± 0.66

## maraviroc [MVC]
[1]; mean ± SEM
  dose reduction index (DRI) in a respective combination with VRC01p: 4.40 ± 0.71
[1]; [15]
  IC50: 5.27 ± 1.12 nM
[1]; [16]
  IC50: 29.6 ± 7.75 nM
[2]; mean ± SEM
  dose reduction index (DRI) in a respective combination with VRC01p: 4.21 ± 0.25
[2]; [15]
  IC50: 18.3 ± 7.9 nM
[2]; [16]
  IC50: 54.9 ± 29.3 nM
[3]; mean ± SEM
  dose reduction index (DRI) in a respective combination with VRC01p: 5.06 ± 0.39
[3]; [15]
  IC50: 15.6 ± 8.87 nM
[3]; [16]
  IC50: 96.4 ± 28.5 nM
[4]; mean ± SEM
  dose reduction index (DRI) in a respective combination with VRC01p: 5.93 ± 0.96
[4]; [15]
  IC50: 32.2 ± 11.5 nM
[4]; [16]
  IC50: 199 ± 40.4 nM
